Source: article PMC10011554, “BET inhibitor trotabresib in heavily pretreated patients with solid tumors and diffuse large B-cell lymphomas” (Nature Communications, 2023)

Assay: Adverse events, DLTs, MTD and RP2D in phase I study CC-90010-ST-001 (NCI CTCAE v4.03)
Format: in vivo
Description: The primary endpoints of the study were the safety and tolerability of trotabresib, as well as the MTD and/or RP2D of trotabresib. Safety was assessed using the National Cancer Institute Common Terminology Criteria for Adverse Events v4.03[53].
The decision to evaluate additional subjects within a dose cohort, a higher dose cohort, intermediate dose cohorts, smaller dose increments, alternate dosing schedules, or declare an MTD will also be determined by the SRC, based on their review of clinical and laboratory safety […]
7.2.4. Definition of a Subject Evaluable for DLT
After the first dose is administered in any cohort during dose escalation, subjects in each cohort […]
more than one subject per day will be enrolled in a given dose escalation cohort.
A subject evaluable for DLT is defined as one that: […]
without experiencing a DLT,
Subjects non-evaluable for DLT will be replaced. Additional subjects within any dose cohort may be enrolled at the discretion of the SRC. Intra-subject dose escalation will not be allowed during the DLT assessment period.
7.2.5. Definition of Maximum Tolerated Dose (MTD) […]
of MTD is described in Section 7.2.2.
A variable dose cohort (eg, less frequent dosing) may be evaluated to accurately determine the MTD at the discretion of the SRC.
7.2.6. Definition of Dose-Limiting Toxicity (DLT) […]
used as a guide for the grading of severity of adverse events. A DLT is defined as any of the following toxicities occurring within the DLT assessment unless the event can clearly be […]
Do se-limiting toxicities are described below:
• Hyperglycemia meeting any of the following criteria:
− Grade 3 or greater fasting hyperglycemia (> 250 mg/dL) lasting > 4 days despite optimal medical treatment
(1 picture or pasted object on this page, not shown here)
− Hyperglycemia associated with diabetic ketoacidosis or nonketotic hyperosmolar coma regardless of glucose level
− Hyperglycemia that necessitates dose reduction despite dose interruption and resolution to ≤ grade 1 hyperglycemia within two weeks as described in […]
• Any Grade 4 non-hematologic toxicity of any duration
• Any non-hematologic toxicity Grade ≥ 3 EXCEPT for:
− Grade 3 diarrhea, nausea, or vomiting of ≤ 3 days duration (with optimal medical […]
− Grade 3 rash of the acneiform, pustular or maculopapular type which resolves to […]
level with resumption of study drug at the same dose (with optimal medical […]
− Grade 3 fatigue which resolves to Grade ≤ 2 within 7 days of study drug […]
the same dose (with optimal medical management).
• Hematological toxicities as follows:
− Grade 4 neutropenia lasting > 7 days
− Grade 4 thrombocytopenia lasting > 7 days, Grade ≥ 3 thrombocytopenia with clinically significant bleeding
• Any AE, Grade ≥ 2 not specified or exempt above, unless clearly determined to be unrelated to the drug, necessitating dose-level reduction during Cycle 1.
Isolated laboratory changes without associated clinical signs or symptoms (eg, hypomagnesemia, hypermagnesemia, hypoalbuminemia, hypophosphatemia, lymphocyte count increased or decreased) may not be included in this definition. These findings will be discussed and reviewed […]
7.2.7. Criteria for Dose Escalation in the Next Cohort of Subjects
During Part A, the dose escalation criteria are described in Section 7.2.2.
7.2.8. Definition of Stopping Criteria
During Part A, the dose escalation stopping rules are in Section 7.2.2.
7.2.9. Permitted Study Drug Adjustments
Dose reductions are permitted in any cycle, including Cycle 1.
• Dose reductions that occur in Cycle 1 during dose escalation will constitute DLT as […]

[1] = part B (12 subjects), 02 Dec 2019 cutoff

For `Cn1cc(-c2cc(S(C)(=O)=O)ccc2OCC2CC2)c2ccccc2c1=O` [trotabresib], the “TRAE: Hyperglycemia” value (part A, grade 3) was 1.45%, the “TRAE: Hypertension” value (part A, grade 3) was 0% and the “TRAE: Hyponatremia” value (part A, grade 3) was 1.45%. For the same molecule, the “TRAE: Hypophosphatemia” value (part A, grade 3) was 1.45%, the “TRAE: Nausea” value (part A, grade 3) was 0% and the “TRAE: Neutropenia” value (part A, grade 3) was 1.45%. For the same molecule, the “TRAE: Platelet count decreased” value (part A, grade 3) was 1.45%, the “TRAE: Stomatitis” value (part A, grade 3) was 0% and the “TRAE: Thrombocytopenia” value (part A, grade 3) was 10.14%. For the same molecule, the “TRAE: Vomiting” value (part A, grade 3) was 0%, the “TRAE: ALT increased” value (part A, grade 4) was 0% and the “TRAE: Anemia” value (part A, grade 4) was 0%. For the same molecule, the “TRAE: Any TRAE” value (part A, grade 4) was 7.25%, the “TRAE: Asthenia” value (part A, grade 4) was 0% and the “TRAE: Decreased appetite” value (part A, grade 4) was 0%. The “TRAE: Dehydration” value (part A, grade 4) was 0%, the “TRAE: Dermatitis acneiform” value (part A, grade 4) was 0% and the “TRAE: Diarrhoea” value (part A, grade 4) was 0%. The “TRAE: Dysgeusia” value (part A, grade 4) was 0%, the “TRAE: Fatigue” value (part A, grade 4) was 0% and the “TRAE: Hyperglycemia” value (part A, grade 4) was 0%. For the same molecule, the “TRAE: Hypertension” value (part A, grade 4) was 0%, the “TRAE: Hyponatremia” value (part A, grade 4) was 1.45% and the “TRAE: Hypophosphatemia” value (part A, grade 4) was 0%. For the same molecule, the “TRAE: Nausea” value (part A, grade 4) was 0%, the “TRAE: Neutropenia” value (part A, grade 4) was 0% and the “TRAE: Platelet count decreased” value (part A, grade 4) was 1.45%. The “TRAE: Stomatitis” value (part A, grade 4) was 0%, the “TRAE: Thrombocytopenia” value (part A, grade 4) was 2.9% and the “TRAE: Vomiting” value (part A, grade 4) was 0%. For the same molecule, the “Grade 3 hyperglycemia, treatment-related” value [1] was 8.3%, the “Grade 4 hyperglycemia, treatment-related” value [1] was 8.3% and the TEAE anemia [1] was 66.7%. For the same molecule, the TEAE thrombocytopenia [1] was 58.3%, the hyperglycemia [1] was 33.3% and the “subjects with at least one TEAE” value [1] was 83.3%. For the same molecule, the “TRAE: ALT increased” value (part B DLBCL, any grade) was 8.7%, the “TRAE: Anemia” value (part B DLBCL, any grade) was 43.48% and the “TRAE: Any TRAE” value (part B DLBCL, any grade) was 100%. The “TRAE: Asthenia” value (part B DLBCL, any grade) was 21.74%, the “TRAE: Decreased appetite” value (part B DLBCL, any grade) was 21.74% and the “TRAE: Dehydration” value (part B DLBCL, any grade) was 13.04%. The “TRAE: Dermatitis acneiform” value (part B DLBCL, any grade) was 0%, the “TRAE: Diarrhoea” value (part B DLBCL, any grade) was 52.17% and the “TRAE: Dysgeusia” value (part B DLBCL, any grade) was 8.7%. For the same molecule, the “TRAE: Fatigue” value (part B DLBCL, any grade) was 0%, the “TRAE: Hyperglycemia” value (part B DLBCL, any grade) was 39.13% and the “TRAE: Hypertension” value (part B DLBCL, any grade) was 4.35%. For the same molecule, the “TRAE: Hyponatremia” value (part B DLBCL, any grade) was 8.7%, the “TRAE: Hypophosphatemia” value (part B DLBCL, any grade) was 17.39% and the “TRAE: Nausea” value (part B DLBCL, any grade) was 21.74%. For the same molecule, the “TRAE: Neutropenia” value (part B DLBCL, any grade) was 39.13%, the “TRAE: Platelet count decreased” value (part B DLBCL, any grade) was 0% and the “TRAE: Stomatitis” value (part B DLBCL, any grade) was 17.39%. The “TRAE: Thrombocytopenia” value (part B DLBCL, any grade) was 91.3%, the “TRAE: Vomiting” value (part B DLBCL, any grade) was 17.39% and the “TRAE: ALT increased” value (part B DLBCL, grade 3) was 0%. The “TRAE: Anemia” value (part B DLBCL, grade 3) was 26.09%, the “TRAE: Any TRAE” value (part B DLBCL, grade 3) was 26.09% and the “TRAE: Asthenia” value (part B DLBCL, grade 3) was 8.7%. The “TRAE: Decreased appetite” value (part B DLBCL, grade 3) was 4.35%, the “TRAE: Dehydration” value (part B DLBCL, grade 3) was 13.04% and the “TRAE: Dermatitis acneiform” value (part B DLBCL, grade 3) was 0%. The “TRAE: Diarrhoea” value (part B DLBCL, grade 3) was 0%, the “TRAE: Dysgeusia” value (part B DLBCL, grade 3) was 0% and the “TRAE: Fatigue” value (part B DLBCL, grade 3) was 0%. For the same molecule, the “TRAE: Hyperglycemia” value (part B DLBCL, grade 3) was 4.35%, the “TRAE: Hypertension” value (part B DLBCL, grade 3) was 4.35% and the “TRAE: Hyponatremia” value (part B DLBCL, grade 3) was 0%. For the same molecule, the “TRAE: Hypophosphatemia” value (part B DLBCL, grade 3) was 13.04%, the “TRAE: Nausea” value (part B DLBCL, grade 3) was 4.35% and the “TRAE: Neutropenia” value (part B DLBCL, grade 3) was 13.04%. For the same molecule, the “TRAE: Platelet count decreased” value (part B DLBCL, grade 3) was 0%, the “TRAE: Stomatitis” value (part B DLBCL, grade 3) was 0% and the “TRAE: Thrombocytopenia” value (part B DLBCL, grade 3) was 17.39%. The “TRAE: Vomiting” value (part B DLBCL, grade 3) was 0%, the “TRAE: ALT increased” value (part B DLBCL, grade 4) was 0% and the “TRAE: Anemia” value (part B DLBCL, grade 4) was 0%. For the same molecule, the “TRAE: Any TRAE” value (part B DLBCL, grade 4) was 65.22%, the “TRAE: Asthenia” value (part B DLBCL, grade 4) was 0% and the “TRAE: Decreased appetite” value (part B DLBCL, grade 4) was 0%. For the same molecule, the “TRAE: Dehydration” value (part B DLBCL, grade 4) was 0%, the “TRAE: Dermatitis acneiform” value (part B DLBCL, grade 4) was 0% and the “TRAE: Diarrhoea” value (part B DLBCL, grade 4) was 0%. For the same molecule, the “TRAE: Dysgeusia” value (part B DLBCL, grade 4) was 0%, the “TRAE: Fatigue” value (part B DLBCL, grade 4) was 0% and the “TRAE: Hyperglycemia” value (part B DLBCL, grade 4) was 4.35%.
